# Source: patent US8461389B2, “Psycho-pharmaceuticals” (University College Dublin, National University of Ireland, …, priority 2008, dated 2013)
# Legend:
# [1] = test system: C57B16 mice; assay: Forced swim test; assay type: in vivo; conditions: 3 and 5 mg/kg i.p.; FIGS. 10A and 10B
# Method: • 1. Fill a 12 cm diameter glass cylinder to 10 cm with 22° C. water. • 2. Place two animals simultaneously in individual side-by-side cylinders separated by an opaque screen. • 3. Place mice in the cylinders for 6 minutes. • 4. Observe the behaviour of the mice for the last 4-minutes of the 6-minute experimental session. • 5. Sessions are videotaped and scored blind, Immobility is scored by summing the time spent immobile; movements necessary to maintain the animals head above water were not scored with data from treated groups compared with data from the control group using nonpaired Student's t tests (two tailed). • 6. Animals are dried with paper towels and heat lamps. FST in Rats: Habituation Session (Day 1) • 1. On Day 1, […] prior to testing, place the animals in the experimental room 60 min before the beginning of the habituation session. Randomly assign animals to a drug treatment, but give all animals within a cage the same treatment. Make food and water available throughout the experiment. • 2. Weigh two animals individually, then place one rat in each of the two cylinders (20 cm in diameter×40 cm high) containing water (25° C.) for 15 min (habituation session). No scoring of immobility is performed during the habituation session. […]
# Values are expressed as mean±S.E.M (n=8). Statistical difference was determined using a Mann Whitney non-parametric U-test. […]
# [2] = test system: C57B16 mice; assay: Water maze spatial learning; assay type: in vivo; conditions: i.p. once daily for 7 days; FIG. 6
# Method: The test apparatus consists of a large circular pool (1 m diameter, 80 cm high, temperature 26° C.) with a platform (11 cm diameter) submerged 1.5 cm below the surface. Both the pool and the platform were constructed of black polyvinyl plastic, which offered no intra-maze cues. The experimental room contained several extra-maze visual cues. During training the platform was hidden in the same quadrant 30 cm away from the edge of the maze. There were five trials, each of them beginning with the rat facing the wall of the maze in one of three different locations. The time taken for the rat to find the platform within a 90 s period was recorded. Probe trials where the platform was removed from the maze and the time the animal spent in the target quadrant were also performed. […]
# Finally, drugs inducing neurobehavioural profile are evaluated in the water maze spatial learning paradigm, a robust task of information acquisition and consolidation—a measure of pro-cognitive action. […]
# The influence of Captodiamine on open-field behaviour (FIG. 3), novel object recognition (FIG. 8), forced swim test (FIGS. 10A and 10B) and water maze spatial learning (FIG. 6). […] Values were analysed using a two way ANOVA and Student t-test and those with a p values<0.05 were accepted as significant and where appropriate are indicated with an asterisk.
# [3] = molecular target: T1, Sigma 1 receptor (Homo sapiens, UniProt Q99720); assay: Novascreen receptor affinity screen (competition with reference ligand), Sigma 1; assay type: binding; conditions: 1 μM Captodiamine competing with a reference ligand; read-out: percent target inhibition, Sigma 1 receptor
# T1 construct: Novascreen (contract screen)
# T1 sequence (Q99720 whole entry, species assumed): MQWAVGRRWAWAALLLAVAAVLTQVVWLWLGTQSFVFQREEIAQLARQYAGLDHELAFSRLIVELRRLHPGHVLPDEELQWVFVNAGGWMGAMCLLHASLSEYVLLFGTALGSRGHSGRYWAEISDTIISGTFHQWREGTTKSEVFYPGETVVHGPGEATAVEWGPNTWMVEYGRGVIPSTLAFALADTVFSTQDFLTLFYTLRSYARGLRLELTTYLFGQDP
# Method: The Structure (FIG. 9A), receptor affinity (FIG. 9B), pharmacokinetics (FIG. 9C) and growth factor modulation (FIG. 9D) of Captodiamine are provided. Analysis of receptor affinities was performed by Novascreen™ and those displacing >20% of the natural ligand are indicated by the filled boxes. Blood levels of Captodiamine were determined by GC mass spectroscopy. In separate samples taken from a cannulated jugular at increasing time intervals following a single intraperitoneal injection of tha drug (5 mg/kg). Growth factor analysis was performed using tissue homogenates and ELISA assays specific for each growth factor (Promega). Values were analysed using a Student t-test and those with a p value<0.05 were accepted as significant and are indicated with an asterisk.
# The higher the target inhibition value, the greater the affinity Captodiamine has for this particular receptor as it displaces a greater proportion of the reference ligand. This assay is an automated high throughput assay performed on cell lines that express only one type of receptor and was carried out by Novascreen (www.novascreen.com). Receptor affinity is a good starting point for determining the mechanism of action for a particular compound.
smiles,measurement,setting,value
"CCCCSc1ccc(C(SCCN(C)C)c2ccccc2)cc1 (stereo not drawn) [Captodiamine, 2-[(4-butylsulfanylphenyl)-phenyl-methyl]sulfanyl-N,N-dimethyl-ethanamin]",time to immobility in the forced swim test,[1],significant increase on time to immobility
same,water maze spatial learning task performance,[2],significant pro-cognitive action
same,inhibition at 1 µM,[3],> 90%
